# Results taken from patent US11786498B2, “Sacubitril calcium salts” (Novartis AG, priority 2015, dated 2023).
# Structures can show the parent of a compound that is named as a salt.
# Key:
# Format in all cases: physicochemical
# [1] = Water uptake / hygroscopicity at relative humidity (sorption-desorption)
# [2] = Solid form stability on wet granulation, equilibration, humidity exposure, compression, grinding (XRPD); details: for form change on wet granulation: wet granulation (with water)
# Protocol: (i) X-Ray Powder Diffraction (XRPD) The X-ray powder diffraction pattern was determined using a Scintag XDS 2000 diffractometer instrument. The X-ray diffraction pattern was recorded between 2° and 35° (2θ) with CuK radiation (45 kV, 40 mA). The measurements were performed at about 45 kV and 40 mA under the following conditions: • Scan rate: 0.5° (20)/min • Chopper increment: 0.02° • Slits (from left to right): 2, 3, 0.3, 0.2 mm
# [3] = Solvent loss as a function of temperature as measured by TG/DTA
# Protocol: (ii) Thermogravimetric/Differential Thermal Analysis (TG/DTA)
# Differential scanning calorimetry was conducted for each crystalline form using a Seiko TG/DTA Instrument. For each analysis, the DSC cell/sample chamber was purged with 100 mL/min of ultra-high purity nitrogengas. The instrument was calibrated with high purity indium. The heating rate was 10° C. per minute in the temperature range between 25 and 300° C. The heat flow, which was normalized by sample weight, was plotted versus the measured sample temperature. The data were reported in units of watts/gram (“W/g”). The plot was made with the endothermic peaks pointing down. The endothermic melt peak (melting point) was evaluated for extrapolated onset temperature.
# Flowability of the solid = assay: Flowability of the solid
smiles,measurement,setting,value
"CCOC(=O)[C@H](C)CC(Cc1ccc(-c2ccccc2)cc1)NC(=O)CCC(=O)O (stereo partly drawn) [amorphous AHU377 calcium salt, calcium salt of N-(3-carboxyl-1-oxopropyl)-(4S)-(p-phenylphenylmethyl)-4-amino-(2R)-methyl butanoic acid ethyl ester]",water uptake,[1]; at 80% RH,15.2%
same,form change on exposure to elevated humidity,[2]; >75% RH,turns into a crystalline hydrate
same,form change after compression,"[2]; compression for 5 min at 10 t, XRPD",No change of the amorphous form
same,form change after grinding,"[2]; grinding, XRPD",No change of the amorphous form
same,form change on wet granulation,[2],rapidly leads to hydrate formation
"CCOC(=O)[C@H](C)CC(Cc1ccc(-c2ccccc2)cc1)NC(=O)CCC(=O)O (stereo partly drawn) [Modification HB, calcium salt of N-(3-carboxyl-1-oxopropyl)-(4S)-(p-phenylphenylmethyl)-4-amino-(2R)-methyl butanoic acid ethyl ester]",behaviour at humidity (in words),"[1]; 25° C., relative humidity from 0% to 80%",remains dry
same,water uptake,[1]; at 95% RH,2.0%
same,form retention during take-up and release of water,[1]; sorption-desorption experiments,retained
same,water levels as obtained,[3],1.4-4.1%
same,Loss on drying (LOD),"[3]; TG/DTA, 10° C./min, nitrogen, listed as HB",3.4%
same,temperature required for complete dehydration,[3]; heating,above 97 °C
same,flowability,Flowability of the solid,good flowability properties
"CCOC(=O)[C@H](C)CC(Cc1ccc(-c2ccccc2)cc1)NC(=O)CCC(=O)O (stereo partly drawn) [Modification A, calcium salt of N-(3-carboxyl-1-oxopropyl)-(4S)-(p-phenylphenylmethyl)-4-amino-(2R)-methyl butanoic acid ethyl ester]",hygroscopicity (in words),[1],hygroscopic
same,water uptake,[1]; at 95% RH,13.8%
"CCOC(=O)[C@H](C)CC(Cc1ccc(-c2ccccc2)cc1)NC(=O)CCC(=O)O (stereo partly drawn) [Modification B, calcium salt of N-(3-carboxyl-1-oxopropyl)-(4S)-(p-phenylphenylmethyl)-4-amino-(2R)-methyl butanoic acid ethyl ester]",hygroscopicity (in words),[1],only slightly hygroscopic
same,"water uptake, maximum reached",[1]; can reach up to,up to 11%
same,hygroscopicity (water uptake) under typical humidity levels,[1]; up to 75% RH,< 2%
same,thermal stability,[3],thermally stable up to its melting point
same,form change on equilibration in solvent,[2]; equilibration in water or ethanol/water 1:1,Hydrate formation was observed
same,form change on wet granulation,[2],Hydrate formation was observed
